Drawing on patent US8273754B2, “Substituted 1H-pyrazolo[3,4-D]pyrimidine-6-amine compounds” (ArQule, Inc., priority 2008, dated 2012), this text covers inhibition for 17 molecules.

This test has as its system cancer cells. Kind of test: MTS cell growth inhibition assay (72 hours). In kind it is cell-based. As to the method:
Cells were maintained at 37° C., 5% CO2 in DMEM media supplemented with 1% fetal bovine serum, penicillin/streptomycin and fungizone (Invitrogen). Cells were seeded into 96-well tissue culture plates at 3000 per well and cultured at 37° C. for 18 hours. Test compounds were dissolved and diluted to 300× in DMSO then further diluted 1:40 in DMEM before addition to cells (1:7.5 dilution). Cells were incubated with test compounds for 72 hours followed by incubation with tetrazolium compound (3-(4,5-dimethylthiazol-2-yl)-5-(3-carboxymethoxyphenyl)-2-(4-sulfophenyl)-2H-tetrazolium, inner salt; MTS) and the electron coupling reagent, phenazine methosulfate (PMS) for 4 hours. […] The ability of compounds to inhibit cell growth in this assay is correlated with the reduction of dehydrogenase enzyme activity found in metabolically active cells. The measurement of the absorbance of the formazan was assessed using an ENVISION™ (Perkin Elmer) microplate reader at 492 nm. The calculated IC50 value is the concentration of the test compound that causes a 50% decrease in the absorbance. […] A=>79% inhibition, B=>50 to 79% inhibition, C=<50% inhibition.

Where [1] appears, read: Homo sapiens, DLD-1, 72 h, DLD-1 cells, read-out: DLD-1 MTS 72 hr at 10 μM.
The mark [2] stands for this setting: Homo sapiens, KATO III, 72 h, KATO III cells, read-out: KATO III MTS 72 hr at 10 μM.
Where [3] appears, read: Homo sapiens, MDA-MB-231, 72 h, MDA-MB-231 cells, read-out: MDA-MB-231 MTS 72 hr at 10 μM.
[4] abbreviates: Homo sapiens, NCI-H1299, 72 h, NCI-H1299 cells, read-out: NCI-H1299 MTS 72 hr at 10 μM.
Setting [5] is: PaCa-2, 72 h, PACA-2 cells, read-out: PACA-2 MTS 72 hr at 10 μM.

Like-named read-outs stand apart in the source and are kept apart here.

On to `COC(=O)c1ccccc1NC(=O)N1CC(Nc2nc(N)nc3[nH]ncc23)Cc2ccccc21` (stereo not shown) [Compound 119, methyl 2-(3-(6-amino-1H-pyrazolo[3,4-d]pyrimidin-4-ylamino)-1,2,3,4-tetrahydroquinoline-1-carboxamido)benzoate], for which the inhibition at 10 µM by setting is: under setting [1], more than 79%; under setting [2], more than 79%; under setting [3], more than 79%; under setting [4], more than 79%; under setting [5], more than 79%.

As for `Cc1ccc(Cl)c(NC(=O)Nc2cccc(S(=O)(=O)N3CC(Nc4nc(N)nc5[nH]ncc45)Cc4ccccc43)c2)c1` (stereo not shown) [Compound 218, 1-[3-({3-[(6-amino-1H-pyrazolo[3,4-d]pyrimidin-4-yl)amino]-3,4-dihydroquinolin-1(2H)-yl}sulfonyl)phenyl]-3-(2-chloro-5-methylphenyl)urea], the inhibition at 10 µM reads like this: under setting [1], more than 79%; under setting [2], more than 79%; under setting [3], more than 79%; under setting [4], more than 79%; under setting [5], more than 79%.

With `Nc1nc(NC2Cc3ccccc3N(C(=O)COc3ccccc3)C2)c2cn[nH]c2n1` (stereo not shown) [Compound 85, 1-(3-(6-amino-1H-pyrazolo[3,4-d]pyrimidin-4-ylamino)-3,4-dihydroquinolin-1(2H)-yl)-2-phenoxyethanone], the inhibition at 10 µM reads like this: under setting [1], less than 50%; under setting [2], less than 50%; under setting [3], less than 50%; under setting [4], less than 50%; under setting [5], less than 50%.

In the case of `COc1ccc(CCNC(=O)N2CC(Nc3nc(N)nc4[nH]ncc34)Cc3ccccc32)cc1` (stereo not shown) [Compound 116, 3-(6-amino-1H-pyrazolo[3,4-d]pyrimidin-4-ylamino)-N-(4-methoxyphenethyl)-3,4-dihydroquinoline-1(2H)-carboxamide], the inhibition at 10 µM runs as follows: under setting [1], less than 50%; under setting [2], less than 50%; under setting [3], less than 50%; under setting [4], less than 50%; under setting [5], less than 50%.

For the molecule `Nc1nc(NC2Cc3ccccc3N(S(=O)(=O)c3cccc(Cl)c3Cl)C2)c2cn[nH]c2n1` (stereo not shown) [Compound 57, N4-(1-(2,3-dichlorophenylsulfonyl)-1,2,3,4-tetrahydroquinolin-3-yl)-1H-pyrazolo[3,4-d]pyrimidine-4,6-diamine], the inhibition at 10 µM under setting [1] was less than 50%; the inhibition at 10 µM under setting [2] was less than 50%; the inhibition at 10 µM under setting [3] is less than 50%; the inhibition at 10 µM under setting [4] was less than 50%; the inhibition at 10 µM under setting [5] is less than 50%.

With `Nc1nc(NC2Cc3ccccc3N(S(=O)(=O)c3cccc(NC(=O)Nc4ccc(C(F)(F)F)cc4)c3)C2)c2cn[nH]c2n1` (stereo not shown) [Compound 209, 1-[3-({3-[(6-amino-1H-pyrazolo[3,4-d]pyrimidin-4-yl)amino]-3,4-dihydroquinolin-1(2H)-yl}sulfonyl)phenyl]-3-[4-(trifluoromethyl)phenyl]urea], the inhibition at 10 µM is more than 79% under setting [1]; more than 79% under setting [2]; more than 79% under setting [3]; more than 79% under setting [4]; more than 79% under setting [5].

For `Nc1nc(NC2Cc3ccccc3N(S(=O)(=O)c3cccc(Cl)c3F)C2)c2cn[nH]c2n1` (stereo not shown) [Compound 78, N4-(1-(3-chloro-2-fluorophenylsulfonyl)-1,2,3,4-tetrahydroquinolin-3-yl)-1H-pyrazolo[3,4-d]pyrimidine-4,6-diamine], the inhibition at 10 µM is less than 50% under setting [1]; less than 50% under setting [2]; less than 50% under setting [3]; less than 50% under setting [4]; less than 50% under setting [5].

As to `CCc1ccccc1NC(=O)N1CC(Nc2nc(N)nc3[nH]ncc23)Cc2ccccc21` (stereo not shown) [Compound 107, 3-(6-amino-1H-pyrazolo[3,4-d]pyrimidin-4-ylamino)-N-(2-ethylphenyl)-3,4-dihydroquinoline-1(2H)-carboxamide], the inhibition at 10 µM by setting is: under setting [1], less than 50%; under setting [2], less than 50%; under setting [3], less than 50%; under setting [4], less than 50%; under setting [5], less than 50%.

On to `Nc1nc(NC2Cc3ccccc3N(Cc3cccc(Oc4cc(Cl)cc(Cl)c4)c3)C2)c2cn[nH]c2n1` (stereo not shown) [Compound 154, N4-{1-[3-(3,5-dichlorophenoxy)benzyl]-1,2,3,4-tetrahydroquinolin-3-yl}-1H-pyrazolo[3,4-d]pyrimidine-4,6-diamine], for which the inhibition at 10 µM is, setting by setting: under setting [1], more than 79%; under setting [2], more than 79%; under setting [3], 50 to 79%; under setting [4], 50 to 79%; under setting [5], 50 to 79%.

Take `Cc1cccc(NC(=O)Nc2ccc(S(=O)(=O)N3CC(Nc4nc(N)nc5[nH]ncc45)Cc4ccccc43)cc2)c1` (stereo not shown) [Compound 195, 1-[4-({3-[(6-amino-1H-pyrazolo[3,4-d]pyrimidin-4-yl)amino]-3,4-dihydroquinolin-1(2H)-yl}sulfonyl)phenyl]-3-(3-methylphenyl)urea]: the inhibition at 10 µM is, setting by setting: under setting [1], more than 79%; under setting [2], more than 79%; under setting [3], more than 79%; under setting [4], less than 50%; under setting [5], more than 79%.

As for `Nc1nc(NC2Cc3ccccc3N(S(=O)(=O)c3cccc(NC(=O)Nc4cccc(C(F)(F)F)c4)c3)C2)c2cn[nH]c2n1` (stereo not shown) [Compound 199, 1-[3-({3-[(6-amino-1H-pyrazolo[3,4-d]pyrimidin-4-yl)amino]-3,4-dihydroquinolin-1(2H)-yl}sulfonyl)phenyl]-3-[3-(trifluoromethyl)phenyl]urea], the inhibition at 10 µM under setting [1] is more than 79%; the inhibition at 10 µM under setting [2] is more than 79%; the inhibition at 10 µM under setting [3] was more than 79%; the inhibition at 10 µM under setting [4] was more than 79%; the inhibition at 10 µM under setting [5] is more than 79%.

In the case of `Nc1nc(NC2Cc3ccccc3N(S(=O)(=O)c3cccc(NC(=O)Nc4cc(F)cc(C(F)(F)F)c4)c3)C2)c2cn[nH]c2n1` (stereo not shown) [Compound 217, 1-[3-({3-[(6-amino-1H-pyrazolo[3,4-d]pyrimidin-4-yl)amino]-3,4-dihydroquinolin-1(2H)-yl}sulfonyl)phenyl]-3-[3-fluoro-5-(trifluoromethyl)phenyl]urea], the inhibition at 10 µM under setting [1] was more than 79%; the inhibition at 10 µM under setting [2] was more than 79%; the inhibition at 10 µM under setting [3] was more than 79%; the inhibition at 10 µM under setting [4] is more than 79%; the inhibition at 10 µM under setting [5] was more than 79%.

Take `Nc1nc(NC2Cc3ccccc3N(S(=O)(=O)c3cccc(NC(=O)Nc4ccc(Cl)c(C(F)(F)F)c4)c3)C2)c2cn[nH]c2n1` (stereo not shown) [Compound 223, 1-(3-(3-(6-amino-1H-pyrazolo[3,4-d]pyrimidin-4-ylamino)-3,4-dihydroquinolin-1(2H)-ylsulfonyl)phenyl)-3-(4-chloro-3-(trifluromethyl)phenyl)urea]: the inhibition at 10 µM under setting [1] was more than 79%; the inhibition at 10 µM under setting [2] is more than 79%; the inhibition at 10 µM under setting [3] is more than 79%; the inhibition at 10 µM under setting [4] was more than 79%; the inhibition at 10 µM under setting [5] was more than 79%.

Turning to `N#Cc1cccc(CN2CC(Nc3nc(N)nc4[nH]ncc34)Cc3ccccc32)c1` (stereo not shown) [Compound 145, 3-({3-[(6-amino-1H-pyrazolo[3,4-d]pyrimidin-4-yl)amino]-3,4-dihydroquinolin-1(2H)-yl}methyl)benzonitrile], the inhibition at 10 µM by setting is: under setting [1], more than 79%; under setting [2], more than 79%; under setting [3], more than 79%; under setting [4], more than 79%; under setting [5], more than 79%.

Turning to `Nc1nc(NC2Cc3ccccc3N(Cc3ccccc3-c3ccc(F)cc3)C2)c2cn[nH]c2n1` (stereo not shown) [Compound 159, N4-{1-[(4′-fluorobiphenyl-2-yl)methyl]-1,2,3,4-tetrahydroquinolin-3-yl}-1H-pyrazolo[3,4-d]pyrimidine-4,6-diamine], the inhibition at 10 µM was less than 50% under setting [1]; less than 50% under setting [2]; less than 50% under setting [3]; less than 50% under setting [4]; less than 50% under setting [5].

As for `Nc1nc(NC2CCN(S(=O)(=O)c3ccc(Cl)c(Cl)c3)c3ccccc3C2)c2cn[nH]c2n1` (stereo not shown) [Compound 179, N4-{1-[(3,4-dichlorophenyl)sulfonyl]-2,3,4,5-tetrahydro-1H-1-benzazepin-4-yl}-1H-pyrazolo[3,4-d]pyrimidine-4,6-diamine], the inhibition at 10 µM was 50 to 79% under setting [1]; 50 to 79% under setting [2]; less than 50% under setting [3]; less than 50% under setting [4]; less than 50% under setting [5].

In the case of `N#Cc1cc(CN2CC(Nc3nc(N)nc4[nH]ncc34)Cc3ccccc32)ccc1F` (stereo not shown) [Compound 138, 5-({3-[(6-amino-1H-pyrazolo[3,4-d]pyrimidin-4-yl)amino]-3,4-dihydroquinolin-1(2H)-yl}methyl)-2-fluorobenzonitrile], the inhibition at 10 µM is, setting by setting: under setting [1], less than 50%; under setting [2], less than 50%; under setting [3], less than 50%; under setting [4], less than 50%; under setting [5], less than 50%.
